Values joined by “and” are separate entries in the source; they are usually repeats but may differ in a detail not shown here. Equal values may be shown once. Blank lines part the entries; values can stand above or below the compound they belong to. Active and inactive are the calls of the source.
What was measured:
[1] = inhibitors of EBV LMP1 NF-kappaB signaling – cell-based, luciferase reporter, luminescence, dry powder, set 2, dose response (AID 624376); format: functional
[2] = viability loss in HEK293 kidney cells – cell-based, cherry-picks, set 5, cytotoxicity control, dose response (AID 1053117); format: functional
[3] = viability loss in A549 lung cancer cells – cell-based, cherry-picks, […], cytotoxicity control, dose response (AID 1053119); format: functional
[4] = OVCAR-3 cell viability loss – plate reader, dry powder samples, PAX8 inhibitor project, dose response (AID 743044); format: functional, cell-based
[5] = CMV-driven luciferase expression suppression in HEK293 – cell-based, luminescence, dry powder, counter-screen for Pax8 inhibitor project, dose response (AID 743020); format: functional
Paired box protein Pax-8 = Paired box protein Pax-8 (Homo sapiens, UniProt Q06710); test: PAX8 transcriptional activity inhibition in RMG-I – RMG-I cells, luciferase, cherry-pick, dose response (AID 687027); format: functional, cell-based;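 also: luciferase reporter driven by Pax8 target thyroperoxidase promoter measured by SteadyGlo luminescence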
[6] = OVCAR8 cell viability loss – plate reader, dry powder samples, PAX8 project, dose response (AID 743197); format: functional, cell-based; details: OVCAR-8
[7] = YAP1 overexpression rescue of CTGF inhibition – DLD1 cells, RT-qPCR, cherry-pick, mechanism study for YAP1 pathway inhibitor project, dose response (AID 1053127); format: functional, cell-based; details: DLD-1
[8] = reduced cellular PGC1a acetyl-lysine signal – cell-based, cherry-picked samples, dose response (AID 720514); format: functional;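 also: potency may reflect raised or lowered acetylation signal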
[9] = liver cell line viability loss – HepG2, luminescence plate reader, powder samples, set 2, cytotoxicity control, dose response (AID 651860); format: functional, cell-based
[10] = molecular target: COUP transcription factor 2 (Homo sapiens, UniProt P24468); test: Luminescence-based cell-based high throughput dose response assay to identify inhibitors of COUP-TFII (NR2F2).; format: functional;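 also: HEK293 cells transiently cotransfected with COUP-TFII expression vector and reporter; luciferase reporter luminescence driven by COUP-TFII from the pX2-168 reporter plasmid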
[11] = mouse embryonic fibroblast toxicity – cell-based, plate reader, dry powder, set 2, cytotoxicity control, dose response (AID 652280); format: functional; details: NIH3T3
[12] = T. cruzi growth inhibition in host cells, dose response, cell-based, plate reader, dry powder, set 2 (AID 652275); format: functional
[13] = molecular target: NAD-dependent protein deacylase sirtuin-5, mitochondrial (Homo sapiens, UniProt Q9NXA8); test: sirtuin-5 deacylation blockers, concentration series – biochemical, fluorescence imaging, cherry-pick, set 5, dose response (AID 720591);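 also: desuccinylation of succinyl peptide AMC substrate read as fluorescence after trypsin release; potency of inhibitors that lower fluorescence and may act on trypsin instead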
[14] = Dd2 parasite growth inhibition in erythrocytes – SYBR Green, dry powder samples, set 9, dose response (AID 1159568); format: functional, cell-based
[15] = molecular target: G-protein coupled receptor 183 (Homo sapiens, UniProt P32249); test: SAR confirmation of small molecule antagonists of the EBI2 receptor via a luminescent beta-arrestin assa.; format: functional
[16] = Potency on glucagon-like peptide 1 release, dose-response in NCI-H716 cell line, half maximal inhibitory concentration (AID 1117344); format: functional, cell-based
[17] = IC50 of insulin release inhibition, rat insulinoma INS-1E line, 5 mM glucose, cell-based (AID 1117331); format: functional
[18] = glucagon-like peptide-1 release potency in STC-1, concentration-response, half-maximal inhibitory concentration in the STC-1 line (AID 1117345); format: functional, cell-based
[19] = molecular target: RNA-editing ligase 1, mitochondrial (Trypanosoma brucei brucei, UniProt P86926); test: inhibition of trypanosome RNA editing ligase – biochemical, fluorescence, Trypanosoma brucei, dose response (AID 1117295); format: functional
Chain of RNA-editing ligase 1, mitochondrial (P86926 whole entry): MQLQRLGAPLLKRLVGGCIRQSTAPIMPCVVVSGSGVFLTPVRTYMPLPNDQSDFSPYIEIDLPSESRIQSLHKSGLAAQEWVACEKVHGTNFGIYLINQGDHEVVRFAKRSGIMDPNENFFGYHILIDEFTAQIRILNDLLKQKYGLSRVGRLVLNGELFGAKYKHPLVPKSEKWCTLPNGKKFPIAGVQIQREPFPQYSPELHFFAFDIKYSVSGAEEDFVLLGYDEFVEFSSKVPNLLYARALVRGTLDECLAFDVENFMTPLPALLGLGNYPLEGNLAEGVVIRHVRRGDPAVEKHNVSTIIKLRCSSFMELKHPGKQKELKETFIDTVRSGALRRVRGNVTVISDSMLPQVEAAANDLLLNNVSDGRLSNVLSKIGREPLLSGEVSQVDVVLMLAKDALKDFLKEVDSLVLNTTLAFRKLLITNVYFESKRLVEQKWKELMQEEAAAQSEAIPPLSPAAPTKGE

Chain of Paired box protein Pax-8 (Q06710 whole entry): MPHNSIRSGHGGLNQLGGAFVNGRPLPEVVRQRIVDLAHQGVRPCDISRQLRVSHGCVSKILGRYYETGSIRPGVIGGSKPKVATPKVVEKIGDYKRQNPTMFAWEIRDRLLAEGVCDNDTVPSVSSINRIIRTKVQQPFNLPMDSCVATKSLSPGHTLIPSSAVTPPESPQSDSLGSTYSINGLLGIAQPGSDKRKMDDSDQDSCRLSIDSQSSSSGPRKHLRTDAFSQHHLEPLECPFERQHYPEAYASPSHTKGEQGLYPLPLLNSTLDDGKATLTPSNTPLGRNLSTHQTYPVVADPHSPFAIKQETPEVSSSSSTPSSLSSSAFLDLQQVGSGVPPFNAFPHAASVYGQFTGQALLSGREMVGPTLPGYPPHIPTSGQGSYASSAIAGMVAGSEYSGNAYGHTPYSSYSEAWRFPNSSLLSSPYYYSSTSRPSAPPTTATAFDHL
Chain of G-protein coupled receptor 183 (P32249 whole entry): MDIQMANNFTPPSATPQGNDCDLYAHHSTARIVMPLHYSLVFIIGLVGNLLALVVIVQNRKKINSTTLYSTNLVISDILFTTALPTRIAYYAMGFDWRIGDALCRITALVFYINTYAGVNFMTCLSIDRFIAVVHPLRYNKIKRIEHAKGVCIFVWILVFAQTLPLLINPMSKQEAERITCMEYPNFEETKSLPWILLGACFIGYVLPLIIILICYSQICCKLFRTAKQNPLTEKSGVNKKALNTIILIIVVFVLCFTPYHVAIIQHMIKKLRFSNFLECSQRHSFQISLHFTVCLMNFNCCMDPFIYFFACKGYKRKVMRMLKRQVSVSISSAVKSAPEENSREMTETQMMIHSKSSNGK
Chain of NAD-dependent protein deacylase sirtuin-5, mitochondrial (Q9NXA8 whole entry): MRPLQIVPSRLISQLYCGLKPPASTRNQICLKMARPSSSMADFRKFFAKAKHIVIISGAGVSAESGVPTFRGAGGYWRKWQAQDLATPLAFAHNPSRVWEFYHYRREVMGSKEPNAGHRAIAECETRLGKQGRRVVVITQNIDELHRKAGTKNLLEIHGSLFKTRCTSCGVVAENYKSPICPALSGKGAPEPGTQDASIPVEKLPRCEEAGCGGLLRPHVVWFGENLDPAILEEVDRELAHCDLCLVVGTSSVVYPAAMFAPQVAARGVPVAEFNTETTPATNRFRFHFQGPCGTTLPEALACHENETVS
Chain of COUP transcription factor 2 (P24468 whole entry): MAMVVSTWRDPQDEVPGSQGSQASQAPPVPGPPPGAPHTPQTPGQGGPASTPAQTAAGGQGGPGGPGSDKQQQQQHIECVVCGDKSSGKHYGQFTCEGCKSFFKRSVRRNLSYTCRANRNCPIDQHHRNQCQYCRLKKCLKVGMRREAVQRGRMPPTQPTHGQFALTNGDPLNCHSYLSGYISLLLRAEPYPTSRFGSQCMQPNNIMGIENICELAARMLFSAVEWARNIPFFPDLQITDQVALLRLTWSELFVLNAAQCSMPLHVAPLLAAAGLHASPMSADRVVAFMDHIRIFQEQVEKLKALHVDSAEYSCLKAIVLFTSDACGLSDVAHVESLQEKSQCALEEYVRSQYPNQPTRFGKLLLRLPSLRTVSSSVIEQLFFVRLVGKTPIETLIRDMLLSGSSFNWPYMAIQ

Structure (SMILES): CC(C)(C)[S@@+]([O-])N1Cc2cc(C(=O)NCc3ccccc3F)nc(-c3cccc(-c4ccncc4)c3)c2[C@H]1CCO
AbsAC35 [1]: 50.48 µM
AC50 [2]: > 52 µM (inactive)
AC50 [3]: 32.2 µM (active)

Structure (SMILES): C[C@@H]1CN([C@H](C)CO)C(=O)c2cc(NC(=O)Nc3ccc(F)cc3)ccc2O[C@@H](C)CCCCO[C@@H]1CN(C)Cc1ccc(C(F)(F)F)cc1
AC50 [4]: 12.4 µM (active)
AC50 [5]: 40.6 µM (active)
AC50 (Paired box protein Pax-8): 5.91 µM (active)
AC50 [6]: 39.5 µM (active)

Structure (SMILES): O=C(Cc1ccncc1)N1CCCCN2[C@H](CO)[C@@H](c3ccc(C#Cc4ccccc4F)cc3)[C@@H]2C1
AC50 [7]: 24.8 µM (active)

Structure (SMILES): O=C1CN(S(=O)(=O)Cc2ccccc2)C[C@@H]2[C@@H](c3ccc(C#Cc4cccc(F)c4)cc3)[C@@H](CO)N12
AC50 [8]: 21.6 µM (active)

Structure (SMILES): O=C(O)C1CCCCC1C(=O)Nc1ccccc1CN1C(=O)c2ccccc2C1=O (stereo not given)
AC50 [9]: > 52 µM (inactive)

IC50 [10]: 9.88 µM (active)
Structure (SMILES): Cc1cc(C)c(O)c(C(=O)CC2CC(=O)NC(=O)C2)c1

Structure (SMILES): CC(C)N1C[C@@H](C)[C@H](CN(C)Cc2ccc(Oc3ccccc3)cc2)Oc2c(C(=O)Nc3ccncc3)cccc2C1=O
AC50 [11]: 6.05 µM (active)
AC50 [12]: 40.5 nM (active) and 71.6 nM (active)

AC50 [13]: > 30 µM (inactive)
Structure (SMILES): C[C@@H]1CN([C@@H](C)CO)C(=O)c2cc(Br)cnc2O[C@H]1CN(C)Cc1cccnc1

Structure (SMILES): CC(C)CC#Cc1ccc([C@@H]2[C@H]3CN(C(=O)Nc4ccccc4)CCCCN3[C@H]2CO)cc1
AC50 [14]: 2.67 µM (active)

IC50 [15]: 0.00172 µM (active)
Structure (SMILES): O=C(/C=C/c1ccc(Br)cc1)N1CCN(Cc2ccc(Cl)c(Cl)c2)CC1

Structure (SMILES): O=C(O)C1CCC1
IC50 [16]: > 40 µM (inactive)
IC50 [17]: > 33.3 µM (inactive)
IC50 [18]: > 40 µM (inactive)

IC50 [19]: > 96.6 µM (inactive)
Structure (SMILES): COC(=O)C1=C(C)N(Cc2cccc(C(F)(F)F)c2)C(NCc2ccc(C(F)(F)F)cc2)=NC1c1ccccc1C(F)(F)F (stereo not given)
